Assay results taken from patent publication US20250009745A1, “CDK INHIBITOR” (SHANGHAI QILU PHARMACEUTICAL RESEARCH AND DEVELOPMENT …, priority 2021, published 2025).

Legend:
[1] = target: T1, CDK4 (Homo sapiens, UniProt P11802); assay: CDK enzymology experiment in vitro, capillary mobility shift assay (MSA); assay type: biochemical; details: read-out: CDK4 (nM) inhibitory IC50
T1 construct: purchased Carna Company
Protocol: (§1) CDK1/CDK2/CDK4/CDK6/CDK7/CDK9 were purchased from Carna Company; Carliper substrate CTD3/substrate 18/substrate 8 were purchased from Gil Biochemical Company; Dinaciclib/Palbociclib were purchased from Selleckchem Company; DMSO was purchased from Sigma Company; 384-well plates were purchased from Corning Company.
(§2) • (1) Preparation of 1×Kinase buffer. • (2) Preparation of compound concentration gradient: Test concentration of the test compound was started at 1 μM, 10 μM or 30 μM, 3-fold dilution, 10 concentrations, detected in duplicate. The test compound was diluted to a 100-fold final concentration with 100% DMSO solution in a 384 source plate. Liquid handler Echo 550 was used to transfer 250 nL of 100-fold final concentration of the compound to the target plate 384-well plate. […] The 384-well plate was centrifuged at 1000 rpm for 30 seconds, and shaken to mix uniformly. • (10) The conversion rate was read with Caliper EZ Reader.
(§3) Where, conversion %_sample is the readings of conversion rate of the sample; conversion %_min: the average value of negative control wells, representing the readings of conversion rate of wells without enzyme activity; conversion %_max: the average value of positive control wells, representing the readings of conversion rate of wells without compound inhibition.
(§4) Taking the log value of the concentration as the X-axis, and the percentage inhibition rate as the Y-axis, the dose-effect curve was fitted using the log(inhibitor) vs. response—Variable slope of the analysis software GraphPad Prism 5 so as to obtain the IC50 value of each compound on the enzyme activity.
(§5) Y=Bottom+(Top−Bottom)/(1+10^((Log IC50−X)*HillSlope)). Calculation formula: […]

[2] = target: T2, CDK2 (Homo sapiens, UniProt P24941); assay: as above; assay type: biochemical; details: read-out: CDK2 (nM) inhibitory IC50
T2 construct: purchased Carna Company
Protocol: as §1, §2, §3, §4, §5

T1 sequence (P11802 whole entry): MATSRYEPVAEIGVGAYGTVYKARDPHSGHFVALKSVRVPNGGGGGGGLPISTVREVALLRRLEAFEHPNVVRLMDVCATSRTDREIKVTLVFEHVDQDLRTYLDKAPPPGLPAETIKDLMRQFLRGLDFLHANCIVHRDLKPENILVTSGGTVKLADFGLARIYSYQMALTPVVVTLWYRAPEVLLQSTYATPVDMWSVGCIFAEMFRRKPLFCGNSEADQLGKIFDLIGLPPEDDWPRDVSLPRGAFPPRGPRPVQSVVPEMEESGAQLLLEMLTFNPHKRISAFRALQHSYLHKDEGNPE
T1 sequence (P30281 whole entry partner): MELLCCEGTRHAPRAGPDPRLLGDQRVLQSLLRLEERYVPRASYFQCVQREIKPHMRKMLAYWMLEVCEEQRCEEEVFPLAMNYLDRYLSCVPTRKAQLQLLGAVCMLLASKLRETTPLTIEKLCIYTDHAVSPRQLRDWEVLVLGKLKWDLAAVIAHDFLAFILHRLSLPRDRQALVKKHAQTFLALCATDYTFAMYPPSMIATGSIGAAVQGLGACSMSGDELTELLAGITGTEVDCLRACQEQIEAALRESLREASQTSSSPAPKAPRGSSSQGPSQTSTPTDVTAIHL

| SMILES | IC50 [1] [nM] | IC50 [2] [nM] |
| --- | --- | --- |
| Cn1cc(S(=O)(=O)N2CCC(Nc3ncc(C#N)c(N[C@@H]4CCOC4)n3)CC2)cn1 [Compound 43] | 100 to 1000 | 10 to 50 |
| Cn1cc(S(=O)(=O)N2CCC(Nc3ncc(C#N)c(N[C@@H]4CCC[C@@]4(C)O)n3)CC2)cn1 (racemic) [Example 19] | 10 to 50 | 2.5 to 10 |
| O=S(=O)(c1ccc(Br)cc1)N1CCC(Nc2ncc(C(F)(F)F)c(O[C@H]3CCOC3)n2)CC1 [Example 99] | 2.5 to 10 | 0.5 to 2.5 |
| Cn1cc(S(=O)(=O)N2CCC(Nc3ncc(C#N)c(N[C@H]4CC[C@H](O)C4)n3)CC2)cn1 (single isomer, unassigned) [Compound 52] | 10 to 50 | 2.5 to 10 |
| Cn1cc(S(=O)(=O)N2CCC(Nc3ncc(C#N)c(NC4CC(F)(F)C4)n3)CC2)cn1 [Compound 78] | 10 to 50 | 2.5 to 10 |
| Cn1cc(S(=O)(=O)N2CCC(Nc3ncc(C#N)c(NC4CCC(F)(F)C4)n3)CC2)cn1 (stereo not drawn) [Compound 41] | 10 to 50 | 2.5 to 10 |
| N#Cc1cnc(NC2CCN(S(=O)(=O)c3ccc(-c4cn[nH]c4)cc3)CC2)nc1N[C@H]1CCOC1 [Compound 105] | 10 to 50 | 0.5 to 2.5 |
| Cn1cc(S(=O)(=O)N2CCC(Nc3ncc(C#N)c(N[C@H]4C[C@@H](O)C4)n3)CC2)cn1 [Compound 77] | 10 to 50 | 2.5 to 10 |
| O=S(=O)(c1ccc(C2=CCNCC2)cc1)N1CCC(Nc2ncc(C(F)(F)F)c(C=C3CCCC3)n2)CC1 [Compound 201] | 2.5 to 10 | 0.5 to 2.5 |
| CC(C)(O)Cn1cc(S(=O)(=O)N2CCC(Nc3ncc(C(F)(F)F)c(O[C@H]4CCOC4)n3)CC2)cn1 [Compound 156] | 2.5 to 10 | 0.5 to 2.5 |
| Cn1cc(S(=O)(=O)N2CCC(Nc3ncc(C#N)c(S(=O)(=O)C4CCCC4)n3)CC2)cn1 [Compound 97] | 10 to 50 | 0.5 to 2.5 |
| Cn1cc(S(=O)(=O)N2CCC(Nc3ncc(C#N)c(N[C@H]4CCC[C@]4(C)O)n3)CC2)cn1 (single isomer, unassigned) [Example 21] | 10 to 50 | 2.5 to 10 |
| Cn1cc(S(=O)(=O)N2CCC(Nc3ncc(C#N)c(O[C@H]4CC[C@H](O)C4)n3)CC2)cn1 (relative stereo) [Compound 55] | 10 to 50 | 2.5 to 10 |
| Cn1cc(S(=O)(=O)N2CC[C@H](Nc3ncc(C(F)(F)F)c(O[C@H]4CCOC4)n3)[C@H](F)C2)cn1 [Compound 127] | 10 to 50 | < 0.5 |
| O=S(=O)(c1ccccn1)N1CCC(Nc2ncc(C(F)(F)F)c(O[C@H]3CCOC3)n2)CC1 [Compound 109] | 10 to 50 | 0.5 to 2.5 |
| Cn1cc(S(=O)(=O)N2CCC(Nc3ncc(C#N)c(N[C@@H]4CC[C@H](O)C4)n3)CC2)cn1 (single isomer, unassigned) [Example 13] | 10 to 50 | 2.5 to 10 |
| Cn1cc(-c2ccc(S(=O)(=O)N3CCC(Nc4ncc(C#N)c(N[C@@H]5CCC[C@H]5O)n4)CC3)cc2)cn1 [Compound 50] | 10 to 50 | 0.5 to 2.5 |
| CN1CC[C@H](Nc2nc(NC3CCN(S(=O)(=O)c4cnn(C)c4)CC3)ncc2C#N)C1 [Compound 72] | 10 to 50 | 2.5 to 10 |
| Cn1cc(S(=O)(=O)N2CCC(Nc3ncc(C#N)c(O[C@H]4CC[C@H](O)C4)n3)CC2)cn1 (single isomer, unassigned) [Compound 56] | 50 to 100 | 2.5 to 10 |
| Cn1cc(S(=O)(=O)N2CCC(Nc3ncc(C#N)c(N[C@H]4CCC[C@@H]4O)n3)CC2)cn1 [Compound 46] | 100 to 1000 | 10 to 50 |
| Cn1cc(S(=O)(=O)N2CCC(Nc3ncc(C#N)c(N[C@H]4CCC[C@H]4O)n3)CC2)cn1 [Compound 48] | 10 to 50 | 2.5 to 10 |
| Cn1cc(S(=O)(=O)N2CCC(Nc3ncc(C#N)c(NC4CCOCC4)n3)CC2)cn1 [Compound 81] | 100 to 1000 | 10 to 50 |
| Cn1cc(S(=O)(=O)N2CCC(Nc3ncc(C#N)c(O[C@@H]4CCC[C@@H]4O)n3)CC2)cn1 (relative stereo) [Compound 65] | 10 to 50 | 2.5 to 10 |
| CO[C@@H]1CCC[C@H]1Nc1nc(NC2CCN(S(=O)(=O)c3cnn(C)c3)CC2)ncc1C#N [Example 14] | 100 to 1000 | 10 to 50 |
